# Measured values taken from patent US12496285B2, “Compositions and methods using at least one glycine or derivative thereof, at least one N-acetylcysteine or derivative thereof, and at least one nicotinamide riboside or NAD+ precursor” (SOCIETE DES PRODUITS NESTLE S.A., priority 2018, dated 2025).
# Test system: mitochondrial respiration
# Assay: High-resolution respirometry of isolated muscle mitochondria from adult zebrafish after menadione-induced acute oxidative stress
# Format: in vivo
# Conditions: 3 uM menadione 2 h then 2 h treatment, low doses: NAC 100 uM + glycine 100 uM (GlyNAC) or NR 50 uM, single treatments
# Description: FIG. 1. Effect of the combination of NAC, glycine and NR on the mitochondrial respiration. High-resolution respirometry of isolated mitochondria from muscle of adult zebrafish (N=5-6/condition). Acute oxidative stress was induced with a 2 h-treatment with menadione (Men). Rescue of the respiration was assessed with a treatment of 2 h with low doses of […] 100 uM, glycine 100 uM) and low dose of NR (50 uM). Data of respiration measurements are shown in 1A. Theoretical additive effect (Δ[…]) has been calculated as the sum of the mean of […] and NR and have been compared to the synergistic effect (Δ[…]). […] After BCA quantification of protein concentration, 150 ug of crude extract were used for high-resolution respirometry quantification. […] Respiration of isolated mitochondria was determined using substrate-uncoupler-inhibitor titration (SUIT) protocols (Pesta and […], 2012) with modifications. […] CI respiration was calculated as the difference between total respiration (CI+CII) and the addition of CI inhibitor rotenone (0.5 uM); CII respiration was calculated as the difference between inhibited CI respiration and the addition of CII inhibitor malonic acid (5 mM). Total respiration (CI+CII, Tot resp) was assessed as the difference of the respiration in presence of all substrates and the total inhibition of CI and CII. All numerical data are expressed as mean±SEM and reported as histograms. […]
structure (smiles),measurement,value
"NC(=O)c1ccc[n+]([C@@H]2O[C@H](CO)[C@@H](O)[C@H]2O)c1 [NR, nicotinamide riboside]",effect on mitochondrial respiration when used alone,do not show any significant effect when used alone
